# Test results as given in patent US10632121B2, “Platelet-derived growth factor receptor mutations and compositions and methods relating thereto” (MEMORIAL SLOAN KETTERING CANCER CENTER, priority 2014, dated 2020).
# “Also recorded” adds a separate entry of the source. Where two headings read alike, the source gives them in different places.
# Columns and labels:
# [1] = system: H1703 human non-small cell lung cancer cells (PDGFRA amplified); assay: Cell proliferation and viability (Vi-Cell, trypan blue), H1703; type: cell-based; conditions: H1703, five day treatment
# Procedure: Growth assays performed on adherent cell lines were trypsanized, counted, and plated into 6 cm dishes. The next day media was removed, and replaced with reduced serum media (5% FBS) with drug or vehicle in triplicate for each concentration. After five days in culture, cells were analyzed in the same manner as non-adherent lines.
# SAR408 and SAR409 were provided by Sanofi. […] Antibodies for western blots were from Cell Signaling Technology with the following exceptions: actin (Sigma), total PDGFRA (Santa Cruz), and V5 epitope (Invitrogen). Western Blots were performed after four hours of drug treatment unless indicated otherwise. Electroluminescence was used to quantify phosphorylation of Akt and S6 ribosomal protein (FIG. 1B) (Meso Scale Discovery cat # K15100D-1 and cat # K150DGD-1). Cell Proliferation and Viability Assays were performed using a Beckman Coulter Vi-Cell XR Cell Viability Analyzer after five days of drug treatment unless indicated otherwise.
# PI3Kβ = PI3Kβ (Homo sapiens, UniProt P42338); conditions: cited from earlier work
# PI3K/mTOR pathway = assay: Clinical trial: IHC of PI3K/mTOR pathway markers in GBM tumor tissue; type: in vivo, human
# Procedure: To evaluate pharmacodynamic effects in tumor tissue, immuno-histochemistry (IHC) was performed with phosphorylation-site specific antibodies against four PI3K/mTOR pathway components: Proline-Rich Akt Substrate of 40-kDa (PRAS40, threonine246), ribosomal protein S6 kinase 1 (S6K1, threonine 389), eukaryotic translation initiation factor 4E-binding protein 1 (4E-BP1, threonine 37/46), and S6 Ribosomal Protein (S6RP, serine 235/236) (FIG. 1D). For each marker staining of several thousand tumor cells was quantified and the staining intensity in the “on-treatment”-biopsy (Surgery 2) was compared with the staining intensity in the tumor sample collected from the same patient at diagnosis (Surgery 1). This “matched-pair” analysis included 19/21 evaluable patients (Table 3) who received at least one dose of study drug, had detectable phospho-S6RP in the pre-treatment sample (Surgery 1), and had tissue of sufficient quality collected on treatment (Surgery 2).
# The design of the trial allowed comparison of the initial glioma (Surgery 1) in these patients to the recurrent glioma which was treated with drug before surgical resection (Surgery 2). Immunohistochemical staining (IHC) was performed on the samples and pathway inhibition was measured via pS6 Ser235/6, pS6K1 Thr389, p4E-BP1 Thr37/46, and pPRAS40 Thr246 (FIG. 1E, upper panel). Cellular proliferation was measured via Ki-67 IHC. […]
# Immunohistochemical (IHC) staining of patient samples was performed on formalin-fixed paraffin-embedded (FFPE) tumor tissues collected at the initial surgery and recurrent tumor surgery. […] Immunoreactivity was detected using NovaRED Peroxidase Substrate kit (Vector Labs SK-4800) and sections were counterstained with hematoxylin.
# To analyze pathway inhibition, three representative tumor images from each slide stained with phospho-proteins were taken, after determining the presence of tumor cells based on hematoxylin staining evaluation. […] The tumor to normal ratio was calculated by dividing the average of the tumor images by the average of the normal tissue image. […]
# [2] = system: panel of 130 other kinases; conditions: Cloughesy et al., 2013; cited from earlier work
# [3] = system: EGFR amplified GBM tumor sphere lines (TS516, TS616, TS676); assay: Cell proliferation and viability, EGFR amplified GBM tumor sphere lines; type: cell-based, human; conditions: five day treatment
# PDGF-B-induced gliomas = conditions: 60 mg/kg/day, ten days, p=0.006 vs vehicle
# PI3Kα = PI3Kα (Homo sapiens, UniProt P42336); conditions: cited from earlier work
# G228V-PDGFRA = assay: Akt activation by PDGFRA expressed in Pdgfra/Pdgfrb double knockout MEFs (Western blot); type: cell-based, mouse; conditions: SAR409 1 μM, one hour pretreatment
# [4] = Clinical trial: primary reason for discontinuation from study treatment; type: in vivo, human
# Source text: All 21 patients discontinued treatment prior to receiving 1 year of postsurgery treatment. Time to tumor progression (TTP) for all patients is presented FIG. 2A.
# [5] = SAR409 50 mg twice daily (N = 8)
# [6] = SAR409 90 mg once daily (N = 7)
# PI3Kβ, sequence (P42338 whole entry): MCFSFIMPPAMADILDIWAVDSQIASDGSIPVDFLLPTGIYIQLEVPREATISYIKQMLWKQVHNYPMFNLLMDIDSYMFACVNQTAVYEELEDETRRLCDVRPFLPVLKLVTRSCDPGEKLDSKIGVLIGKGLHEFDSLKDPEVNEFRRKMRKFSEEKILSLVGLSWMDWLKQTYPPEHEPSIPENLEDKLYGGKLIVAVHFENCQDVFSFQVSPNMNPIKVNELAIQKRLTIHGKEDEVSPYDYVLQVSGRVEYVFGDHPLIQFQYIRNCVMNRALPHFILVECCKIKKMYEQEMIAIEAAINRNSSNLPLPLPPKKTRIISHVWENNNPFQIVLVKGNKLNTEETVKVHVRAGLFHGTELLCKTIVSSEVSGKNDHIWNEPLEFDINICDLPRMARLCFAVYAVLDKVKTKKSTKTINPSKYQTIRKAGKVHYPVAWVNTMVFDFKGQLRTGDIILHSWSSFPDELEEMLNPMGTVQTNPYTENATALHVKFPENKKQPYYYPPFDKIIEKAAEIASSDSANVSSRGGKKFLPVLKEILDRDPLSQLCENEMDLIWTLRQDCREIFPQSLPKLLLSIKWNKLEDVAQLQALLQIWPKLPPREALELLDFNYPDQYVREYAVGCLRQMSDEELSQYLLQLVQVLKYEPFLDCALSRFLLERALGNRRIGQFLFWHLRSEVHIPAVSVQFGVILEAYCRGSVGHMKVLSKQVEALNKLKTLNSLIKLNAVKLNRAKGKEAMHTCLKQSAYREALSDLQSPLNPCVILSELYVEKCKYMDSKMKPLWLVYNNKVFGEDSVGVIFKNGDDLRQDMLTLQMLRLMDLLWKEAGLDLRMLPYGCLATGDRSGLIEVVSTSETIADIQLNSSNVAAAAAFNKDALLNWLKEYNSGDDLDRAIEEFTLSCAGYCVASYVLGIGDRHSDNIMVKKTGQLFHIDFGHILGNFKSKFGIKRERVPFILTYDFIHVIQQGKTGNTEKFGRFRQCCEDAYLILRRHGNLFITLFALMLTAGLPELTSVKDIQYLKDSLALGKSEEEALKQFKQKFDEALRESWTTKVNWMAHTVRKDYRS
# PI3Kβ, sequence (P27986 whole entry partner): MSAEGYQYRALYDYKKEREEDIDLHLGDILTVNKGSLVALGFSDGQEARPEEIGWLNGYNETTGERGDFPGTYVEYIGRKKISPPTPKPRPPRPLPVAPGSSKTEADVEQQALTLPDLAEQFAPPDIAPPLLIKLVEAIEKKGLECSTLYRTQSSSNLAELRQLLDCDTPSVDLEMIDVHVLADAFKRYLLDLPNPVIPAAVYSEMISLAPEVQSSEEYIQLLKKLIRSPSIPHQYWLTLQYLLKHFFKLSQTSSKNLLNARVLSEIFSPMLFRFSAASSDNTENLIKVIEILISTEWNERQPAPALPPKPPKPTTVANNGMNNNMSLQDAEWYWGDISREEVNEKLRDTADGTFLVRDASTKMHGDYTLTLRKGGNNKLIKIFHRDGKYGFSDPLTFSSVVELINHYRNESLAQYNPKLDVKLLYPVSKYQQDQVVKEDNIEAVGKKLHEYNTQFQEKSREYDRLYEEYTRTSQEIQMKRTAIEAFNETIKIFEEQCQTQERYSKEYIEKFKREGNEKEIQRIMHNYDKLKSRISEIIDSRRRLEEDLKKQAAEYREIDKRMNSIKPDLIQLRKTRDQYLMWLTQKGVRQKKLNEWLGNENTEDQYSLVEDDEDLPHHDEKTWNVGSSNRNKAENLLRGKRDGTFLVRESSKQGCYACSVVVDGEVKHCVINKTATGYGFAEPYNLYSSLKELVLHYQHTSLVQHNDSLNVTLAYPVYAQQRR
# PI3Kα, sequence (P42336 whole entry): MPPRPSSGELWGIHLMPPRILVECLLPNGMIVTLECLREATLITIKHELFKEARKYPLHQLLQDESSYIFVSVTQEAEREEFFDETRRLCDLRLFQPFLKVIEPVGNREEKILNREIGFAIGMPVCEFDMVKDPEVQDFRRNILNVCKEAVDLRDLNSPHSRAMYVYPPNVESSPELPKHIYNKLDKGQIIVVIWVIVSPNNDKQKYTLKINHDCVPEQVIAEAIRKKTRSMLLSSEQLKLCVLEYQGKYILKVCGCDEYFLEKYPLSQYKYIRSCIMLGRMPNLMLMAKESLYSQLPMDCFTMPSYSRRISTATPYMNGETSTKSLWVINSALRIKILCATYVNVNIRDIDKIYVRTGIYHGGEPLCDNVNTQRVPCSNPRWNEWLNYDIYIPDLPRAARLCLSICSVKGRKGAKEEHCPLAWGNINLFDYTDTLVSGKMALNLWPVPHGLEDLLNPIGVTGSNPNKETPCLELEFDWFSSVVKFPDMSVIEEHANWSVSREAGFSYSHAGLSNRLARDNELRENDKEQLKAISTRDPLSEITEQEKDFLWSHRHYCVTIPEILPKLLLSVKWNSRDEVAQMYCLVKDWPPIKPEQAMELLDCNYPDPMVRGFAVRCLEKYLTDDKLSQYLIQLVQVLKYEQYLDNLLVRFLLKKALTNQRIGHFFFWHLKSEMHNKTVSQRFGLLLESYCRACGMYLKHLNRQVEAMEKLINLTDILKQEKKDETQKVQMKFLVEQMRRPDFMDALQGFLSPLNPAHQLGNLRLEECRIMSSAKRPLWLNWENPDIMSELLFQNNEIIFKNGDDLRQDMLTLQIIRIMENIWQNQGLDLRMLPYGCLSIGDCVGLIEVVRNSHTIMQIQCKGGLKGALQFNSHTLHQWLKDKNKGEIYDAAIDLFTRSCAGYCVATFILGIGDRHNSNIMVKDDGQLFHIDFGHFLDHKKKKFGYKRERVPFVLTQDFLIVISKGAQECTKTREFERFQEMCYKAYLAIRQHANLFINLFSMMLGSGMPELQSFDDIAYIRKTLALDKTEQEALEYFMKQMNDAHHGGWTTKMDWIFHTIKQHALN
# PI3Kα, sequence (P27986 whole entry partner): as the sequence (P27986 whole entry partner) above
compound,measurement,setting,value
"CCn1c(=O)c(-c2cc[nH]n2)cc2c(C)nc(N)nc21 [SAR409, voxtalisib]",cell death (% Trypan blue positive cells),[1],induction of cell death
same,proliferation / growth inhibition,[1],potent growth inhibition
same,IC50,PI3Kβ,128 nM
same,tumor cell proliferation and all four PI3K/mTOR pathway markers in on-treatment biopsy,"PI3K/mTOR pathway; patient #2021, Surgery 2",decrease
same,"PI3K/mTOR pathway inhibition in tumor, Surgery 2 vs Surgery 1",PI3K/mTOR pathway; patients treated 10-28 days before surgery,Inhibition of the PI3K/mTOR Pathway
same,inhibition of a panel of 130 other kinases,[2],do not significantly inhibit
same,cell death (% Trypan blue positive cells),[3],failed to induce cell death
same,proliferation,[3],induced proliferation arrest
same,cell death (% Trypan blue positive cells),[3]; listed as SAR245409,not cell death induction
same,fold change in tumor size (MRI) between start and end of treatment,PDGF-B-induced gliomas,grew markedly slower
same,fold change in tumor size (MRI) between start and end of treatment,PDGF-B-induced gliomas; listed as SAR245409,statistically significantly smaller
same,IC50,PI3Kα,101 nM
same,Akt activation by G228V-PDGFRA (Western blot),G228V-PDGFRA,could be inhibited; also recorded: blocks ligand induced AKT activation
same,Discontinuation: Adverse Event or SAE unrelated to disease progression,[4]; [5],3 (37.5) n (%)
same,Discontinuation: Clinical disease progression per principal investigator,[4]; [5],0 n (%)
same,Discontinuation: Disease progression per modified RANO,[4]; [5],4 (50.0) n (%)
same,Discontinuation: Adverse Event or SAE unrelated to disease progression,[4]; [6],2 (28.6) n (%)
same,Discontinuation: Clinical disease progression per principal investigator,[4]; [6],1 (14.3) n (%)
same,Discontinuation: Disease progression per modified RANO,[4]; [6],4 (57.1) n (%)
